pIC50: −log10 of the molar value.
Columns and labels:
[1] = Intrinsic clearance in human liver microsomes per mg of protein; type: ADME, Microsome
[2] = molecular target: C-C chemokine receptor type 5 (Homo sapiens, UniProt P51681); assay: Binding affinity at CCR5 receptor by radiolabeled RANTES binding assay
[3] = tested on: Caco-2; assay: Efflux ratio of permeability from basolateral to apical over apical to basolateral side in human Caco-2 cells after 21 days; type: ADME, cell-based; conditions: caco-2, 504 h
[4] = Permeability from apical to basolateral side of human Caco-2 cells after 21 days; type: ADME, cell-based; conditions: read-out: permeability
[5] = tested on: Human immunodeficiency virus 1; assay: Antiviral activity against HIV1 NL4-3 infected in human JC53-BL cells assessed as luciferase activity after 3 days post infection; type: functional, organism-based; conditions: Human immunodeficiency virus 1, NL4-3, JC53BL, 72 h
[6] = (§1) Oral bioavailability in rat at 1 mg/kg; type: ADME, organism-based; conditions: in vivo
[7] = tested on: Liver microsomes; assay: Intrinsic clearance in rat liver microsomes; type: ADME, Microsome
[8] = Cmax in rat at 1 mg/kg, po; type: ADME, organism-based; set-up: dose 1 mg/kg, route oral; conditions: in vivo
[9] = Clearance in rat at 1 mg/kg, iv; type: ADME, organism-based; set-up: dose 1 mg/kg, route intravenous; conditions: in vivo
[10] = Half life in rat at 1 mg/kg, iv; type: ADME, organism-based; set-up: dose 1 mg/kg, route intravenous; conditions: in vivo
[11] = (§2) AUC in rat at 1 mg/kg, po; type: ADME, organism-based, Plasma; set-up: dose 1 mg/kg, route oral; conditions: plasma
[12] = Half life in cynomolgus monkey at 1 mg/kg, iv; type: ADME, organism-based, Macaca fascicularis; set-up: dose 1 mg/kg, route intravenous; conditions: in vivo
[13] = AUC in cynomolgus monkey at 1 mg/kg, po; type: ADME, organism-based, Macaca fascicularis; set-up: dose 1 mg/kg, route oral; conditions: plasma
[14] = Oral bioavailability in cynomolgus monkey at 1 mg/kg; type: ADME, organism-based, Macaca fascicularis; conditions: in vivo
[15] = Clearance in cynomolgus monkey at 1 mg/kg, iv; type: ADME, organism-based, Macaca fascicularis; set-up: dose 1 mg/kg, route intravenous; conditions: in vivo
[16] = Intrinsic clearance in cynomolgus monkey liver microsomes; type: ADME, Macaca fascicularis, Microsome
[17] = Cmax in cynomolgus monkey at 1 mg/kg, po; type: ADME, organism-based, Macaca fascicularis; set-up: dose 1 mg/kg, route oral; conditions: in vivo
[18] = tested on: Rattus norvegicus; assay: as §1; type: ADME, organism-based; conditions: in vivo
[19] = tested on: Rattus norvegicus; assay: as §2; type: ADME, organism-based, Plasma; set-up: dose 1 mg/kg, route oral; conditions: in vivo
[20] = molecular target: hERG (KCNH2) (Homo sapiens, UniProt Q12809); assay: Inhibition of human ERG by patch clamp technique
Chain of hERG (KCNH2) (Q12809 whole entry): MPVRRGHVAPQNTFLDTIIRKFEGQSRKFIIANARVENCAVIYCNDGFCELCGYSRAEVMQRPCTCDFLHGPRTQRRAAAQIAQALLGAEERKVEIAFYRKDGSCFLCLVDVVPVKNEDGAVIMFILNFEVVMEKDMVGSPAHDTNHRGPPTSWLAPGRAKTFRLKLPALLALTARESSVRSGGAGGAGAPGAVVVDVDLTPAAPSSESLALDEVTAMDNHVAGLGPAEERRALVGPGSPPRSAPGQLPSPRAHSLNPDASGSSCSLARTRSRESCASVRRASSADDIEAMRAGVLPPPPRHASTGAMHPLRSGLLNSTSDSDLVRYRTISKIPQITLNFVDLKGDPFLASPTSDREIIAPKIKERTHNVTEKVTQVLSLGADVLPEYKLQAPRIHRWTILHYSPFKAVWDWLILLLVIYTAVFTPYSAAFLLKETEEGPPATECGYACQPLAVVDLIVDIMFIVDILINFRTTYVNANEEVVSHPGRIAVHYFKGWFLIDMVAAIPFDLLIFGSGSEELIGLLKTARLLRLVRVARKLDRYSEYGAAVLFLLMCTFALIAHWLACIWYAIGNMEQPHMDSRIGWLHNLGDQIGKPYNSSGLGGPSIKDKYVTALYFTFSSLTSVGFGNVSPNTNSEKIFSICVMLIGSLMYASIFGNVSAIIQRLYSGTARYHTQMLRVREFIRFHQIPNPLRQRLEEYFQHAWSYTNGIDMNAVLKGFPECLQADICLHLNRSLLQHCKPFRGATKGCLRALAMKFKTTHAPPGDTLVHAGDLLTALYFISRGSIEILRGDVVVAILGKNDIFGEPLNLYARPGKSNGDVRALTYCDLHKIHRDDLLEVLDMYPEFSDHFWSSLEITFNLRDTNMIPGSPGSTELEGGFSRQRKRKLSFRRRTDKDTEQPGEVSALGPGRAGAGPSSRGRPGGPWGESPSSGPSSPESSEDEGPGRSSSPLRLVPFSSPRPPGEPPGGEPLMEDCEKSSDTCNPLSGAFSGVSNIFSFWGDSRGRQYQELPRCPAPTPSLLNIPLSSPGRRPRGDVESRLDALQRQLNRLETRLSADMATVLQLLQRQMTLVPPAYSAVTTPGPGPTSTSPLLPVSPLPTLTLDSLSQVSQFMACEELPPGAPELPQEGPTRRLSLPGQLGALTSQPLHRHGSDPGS

Chain of C-C chemokine receptor type 5 (P51681 whole entry): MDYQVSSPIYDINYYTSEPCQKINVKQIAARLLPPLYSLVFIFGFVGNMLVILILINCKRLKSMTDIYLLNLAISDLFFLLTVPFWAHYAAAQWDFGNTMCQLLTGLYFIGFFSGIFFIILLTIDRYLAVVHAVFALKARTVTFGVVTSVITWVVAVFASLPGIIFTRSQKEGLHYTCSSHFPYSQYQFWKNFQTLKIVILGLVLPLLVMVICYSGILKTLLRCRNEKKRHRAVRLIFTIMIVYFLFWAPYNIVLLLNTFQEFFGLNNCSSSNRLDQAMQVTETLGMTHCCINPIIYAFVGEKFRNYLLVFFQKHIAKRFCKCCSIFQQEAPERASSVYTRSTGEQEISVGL

| Compound | microsomal CLint [1] [µL/min/mg] | pIC50 [2] | Ratio [3] | Papp A→B [4] [×10⁻⁶ cm/s] | pIC50 [5] | other results |
| --- | --- | --- | --- | --- | --- | --- |
| Cc1cc(C#N)nc(C)c1C(=O)N1CCC(C)(N2CCC(N3C(=O)N(C)C[C@H]3c3ccccc3)CC2)CC1 | 44 | 7.62 | 25 | 0.6 | 7.66 |  |
| CNC(=O)N1CCC(CN2C[C@@H](c3ccccc3)N(C3CCN(C4(C)CCN(C(=O)c5c(C)cc(C#N)nc5C)CC4)CC3)C2=O)CC1 | 53 | 7.59 | 10 | 0.7 | 7.60 |  |
| Cc1ncnc(C)c1C(=O)N1CCC(C)(N2CCC(N3C(=O)N(C4CCOCC4)C[C@H]3c3ccccc3)CC2)CC1 | 8 |  | 28 | 0.6 | < 6.20 |  |
| COC(=O)N1CCC(CN2C[C@@H](c3ccccc3)N(C3CCN(C4(C)CCN(C(=O)c5c(C)ncnc5C)CC4)CC3)C2=O)CC1 | 155 |  | 56 | 0.3 | 7.59 |  |
| Cc1ncnc(C)c1C(=O)N1CCC(C)(N2CCC(N3C(=O)N(CC4CCN(S(C)(=O)=O)CC4)C[C@H]3c3ccccc3)CC2)CC1 | 224 | 7.47 | 38 | 0.2 | 8.15 |  |
| CNC(=O)N1CCC(CN2C[C@@H](c3ccccc3)N(C3CCN(C4(C)CCN(C(=O)c5c(C)ncnc5C)CC4)CC3)C2=O)CC1 | 13 | 7.49 | 13 | 0.1 | 7.00 |  |
| CO[C@H]1CC[C@H](CN2C[C@@H](c3ccccc3)N(C3CCN(C4(C)CCN(C(=O)c5c(C)ncnc5C)CC4)CC3)C2=O)CC1 | 69 | 7.21 | 13 | 1.4 | 8.10 |  |
| CCO[C@H]1CC[C@H](CN2C[C@@H](c3ccccc3)N(C3CCN(C4(C)CCN(C(=O)c5c(C)ncnc5C)CC4)CC3)C2=O)CC1 | 47 | 8.22 | 4 | 3 | 8.52 | bioavailability [6]: 10%; CL [7]: 89 µL/min; Cmax [8]: 21 ng/mL; clearance [9]: 65 mL/min/kg; half-life [10]: 0.8 h; AUC [11]: 49 ng·h/mL |
| Cc1ncnc(C)c1C(=O)N1CCC(C)(N2CCC(N3C(=O)N(C[C@H]4CC[C@H](O)CC4)C[C@H]3c3ccccc3)CC2)CC1 | 12 | 7.70 | 61 | 0.2 | 8.10 |  |
| Cc1cc(C#N)nc(C)c1C(=O)N1CCC(C)(N2CCC(N3C(=O)N(CC4CCOCC4)C[C@H]3c3ccccc3)CC2)CC1 | 57 | 7.92 | 20 | 1 | 8.70 |  |
| Cc1ncnc(C)c1C(=O)N1CCC(C)(N2CCC(N3C(=O)N(CCC4CCOCC4)C[C@H]3c3ccccc3)CC2)CC1 | 96 | 8.10 | 24 | 0.8 | 7.60 |  |
| Cc1ncnc(C)c1C(=O)N1CCC(C)(N2CCC(N3C(=O)N(CC4CCOCC4)C[C@H]3c3ccccc3)CC2)CC1 | 16 | 7.70 | 29 | 0.5 | 7.49 | half-life [12]: 1.9 h; AUC [13]: 55 ng·h/mL; bioavailability [14]: 14%; clearance [15]: 39 mL/min/kg; microsomal CLint [16]: 65 µL/min/mg; Cmax [17]: 16 ng/mL |
| Cc1ncnc(C)c1C(=O)N1CCC(C)(N2CCC(N3C(=O)N(CC4CCOCC4)C[C@@H]3c3ccccc3)CC2)CC1 |  | < 6.30 |  |  | < 6.19 |  |
| Cc1cc(C#N)nc(C)c1C(=O)N1CCC(C)(N2CCC(N3C(=O)N(C4CCOCC4)C[C@H]3c3ccccc3)CC2)CC1 | 15 | 7.68 | 12 | 1 | 8.15 | F [18]: 23%; CL [7]: 55 µL/min; Cmax [8]: 43 ng/mL; half-life [10]: 5.7 h; AUC [19]: 85 ng·h/mL |
| Cc1cc(C#N)nc(C)c1C(=O)N1CCC(C)(N2CCC(N3C(=O)N(C[C@H]4CC[C@H](O)CC4)C[C@H]3c3ccccc3)CC2)CC1 | 34 | 7.48 | 47 | 0.4 | 8.52 |  |
| Cc1cc(C#N)nc(C)c1C(=O)N1CCC(C)(N2CCC(N3C(=O)N(CC4CCOCC4)C[C@@H]3c3ccccn3)CC2)CC1 | 18 | 7.92 | 77 | 0.1 | 7.66 | bioavailability [6]: 19%; CL [7]: 87 µL/min; Cmax [8]: 38 ng/mL; clearance [9]: 29 mL/min/kg; half-life [10]: 1 h; AUC [11]: 187 ng·h/mL |
| CCO[C@H]1CC[C@H](CN2C[C@H](c3ccccn3)N(C3CCN(C4(C)CCN(C(=O)c5c(C)cc(C#N)nc5C)CC4)CC3)C2=O)CC1 | 40 | 7.60 | 30 | 0.5 | 8.05 |  |
| CCCCC1CN(C2CCOCC2)C(=O)N1C1CCN(C2(C)CCN(C(=O)c3c(C)ncnc3C)CC2)CC1 (racemic) | 9 | 7.08 | 52 | 0.4 | < 6.20 |  |
| CCCCC1CN(CC2CCOCC2)C(=O)N1C1CCN(C2(C)CCN(C(=O)c3c(C)ncnc3C)CC2)CC1 (racemic) | 36 | 7.37 | 40 | 0.4 | 6.47 |  |
| Cc1cc(C#N)nc(C)c1C(=O)N1CCC(C)(N2CCC(N3C(=O)N(C4CCOCC4)CC3c3ccccc3)CC2)CC1 (racemic) |  |  |  |  |  | half-life [12]: 1.9 h; AUC [13]: 418 ng·h/mL; bioavailability [14]: 42%; clearance [15]: 17 mL/min/kg; IC20 [20]: 3500 nM; microsomal CLint [16]: 33 µL/min/mg; Cmax [17]: 133 ng/mL |
| Cc1ncnc(C)c1C(=O)N1CCC(C)(N2CCC(N3C(=O)N(CC4CCOCC4)CC3c3ccccc3)CC2)CC1 (racemic) | 31 | 7.57 | 33 | 0.4 | 7.33 | bioavailability [6]: 27%; CL [7]: 14 µL/min; Cmax [8]: 56 ng/mL; clearance [9]: 44 mL/min/kg; half-life [10]: 1.5 h; IC20 [20]: 22000 nM; AUC [11]: 189 ng·h/mL |
| CCCCC1CN(C2CCOCC2)C(=O)N1C1CCN(C2(C)CCN(C(=O)c3c(C)cc(C#N)nc3C)CC2)CC1 (racemic) | 20 | 7.19 | 14 | 1 | 7.39 |  |

— ChEMBL document CHEMBL1155507, “Synthesis, SAR and evaluation of [1,4']-bipiperidinyl-4-yl-imidazolidin-2-one derivatives as novel CCR5 antagonists” (Bioorg Med Chem Lett, 2010)
